Assay results from patent US20240228488A1 (TAKEDA PHARMACEUTICAL COMPANY LIMITED, priority 2021, published 2024).

Biological target: human activated kallikrein enzyme (Homo sapiens, UniProt P03952)
Experiment: Plasma kallikrein inhibition, fluorogenic PFR-AMC substrate, 500 pM activated kallikrein format
Format: biochemical
Conditions: 500 pM activated kallikrein, 300 uM PFR-AMC, 30 min preincubation, 10 min reaction; read-out: Primary Dose Response Assay: Average EC50
Method in brief: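 500 pM enz + cpd, 30 min RT preinc; start w/ PFR-AMC 300 uM; 10 min RT; Ex380/Em460. Buffer: Tris 20 mM pH 7.5, EDTA 1 mM, NaCl 150 mM, PEG-400 0.1%, Triton 0.1%. EC50.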

Sequence of human activated kallikrein enzyme (P03952 391-638 limits assumed): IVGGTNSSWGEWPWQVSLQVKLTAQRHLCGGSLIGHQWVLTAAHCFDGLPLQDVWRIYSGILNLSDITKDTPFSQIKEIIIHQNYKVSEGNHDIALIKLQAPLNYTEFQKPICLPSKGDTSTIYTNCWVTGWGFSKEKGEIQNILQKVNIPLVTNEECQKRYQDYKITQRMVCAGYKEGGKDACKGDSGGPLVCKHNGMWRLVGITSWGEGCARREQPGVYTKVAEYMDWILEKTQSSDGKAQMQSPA
Sequence of human activated kallikrein enzyme (P03952 20-390 partner limits assumed): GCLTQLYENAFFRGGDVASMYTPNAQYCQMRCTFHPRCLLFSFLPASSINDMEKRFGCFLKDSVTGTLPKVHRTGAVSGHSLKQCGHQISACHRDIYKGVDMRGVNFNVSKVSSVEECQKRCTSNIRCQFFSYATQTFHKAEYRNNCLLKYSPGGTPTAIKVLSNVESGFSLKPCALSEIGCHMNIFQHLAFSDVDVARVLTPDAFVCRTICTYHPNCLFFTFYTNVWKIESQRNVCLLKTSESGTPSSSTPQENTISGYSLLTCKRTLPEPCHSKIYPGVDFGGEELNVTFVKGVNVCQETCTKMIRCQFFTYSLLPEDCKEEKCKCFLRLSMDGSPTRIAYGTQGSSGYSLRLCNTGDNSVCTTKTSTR

| EC50 [µM] | SMILES |
| --- | --- |
| 0.1 to 1 | Cc1ccnc([C@H]2C[C@@H]2C(=O)Nc2cc(N(Cc3cn4cc(C5CC5)cc(N5CC(=O)N(C)C5=O)c4n3)C(=O)OC(C)OC(=O)C(C)C)ncn2)n1 (stereo partly drawn) [Example 467, 1-((((6-cyclopropyl-8-(3-methyl-2,4-dioxoimidazolidin-1-yl)imidazo[1,2-a]pyridin-2-yl)methyl)(6-((1S,2S)-2-(4-methylpyrimidin-2-yl)cyclopropane-1-carboxamido)pyrimidin-4-yl)carbamoyl)oxy)ethyl isobutyrate] |
| 0.1 to 1 | O=C(Nc1ncccc1OCc1cn2cc(C3CC3)ccc2n1)[C@H]1C[C@@H]1c1cccc(Cl)c1 [Example 569, (1S,2S)-2-(3-chlorophenyl)-N-(3-((6-cyclopropylimidazo[1,2-a]pyridin-2-yl)methoxy)pyridin-2-yl)cyclopropane-1-carboxamide] |
| 0.01 to 0.1 | COc1ccc(CN2C(=O)CN(c3cc(C4CC4)cn4cc(CNc5ccnc(NC(=O)[C@H]6C[C@@H]6c6cccc(Cl)c6)c5)nc34)C2=O)cc1 [Example I-22, (1S,2S)-2-(3-chlorophenyl)-N-(4-(((6-cyclopropyl-8-(3-(4-methoxybenzyl)-2,4-dioxoimidazolidin-1-yl)imidazo[1,2-a]pyridin-2-yl)methyl)amino)pyridin-2-yl)cyclopropane-1-carboxamide] |
| < 0.001 | Cc1ccnc(C2CC2C(=O)Nc2cc(OCc3cn4cc(C5CC5)cc(N5CC(=O)N(C)C5=O)c4n3)c(C(F)(F)F)nn2)n1 (centres unmarked) [Example 666, N-(5-((6-cyclopropyl-8-(3-methyl-2,4-dioxoimidazolidin-1-yl)imidazo[1,2-a]pyridin-2-yl)methoxy)-6-(trifluoromethyl)pyridazin-3-yl)-2-(4-methylpyrimidin-2-yl)cyclopropane-1-carboxamide] |
| 0.001 to 0.01 | COC(=O)C1CN(c2cc(C3CC3)cn3cc(CNc4cc(NC(=O)[C@H]5C[C@@H]5c5cccc(Cl)c5)ncn4)nc23)CCN1C (stereo partly drawn) [Example I-8, methyl 4-(2-(((6-((15,2S)-2-(3-chlorophenyl)cyclopropane-1-carboxamido)pyrimidin-4-yl)amino)methyl)-6-cyclopropylimidazo[1,2-α]pyridin-8-yl)-1-methylpiperazine-2-carboxylate] |
| 0.1 to 1 | Nc1ccc([C@H]2C[C@@H]2C(=O)Nc2cc(NCc3cn4cc(C5CC5)ccc4n3)ncn2)cc1Cl (racemic) [Example 278, rac-(1S*,2S*)-2-(4-amino-3-chlorophenyl)-N-(6-(((6-cyclopropylimidazo[1,2-a]pyridin-2-yl)methyl)amino)pyrimidin-4-yl)cyclopropane-1-carboxamide] |
| 0.001 to 0.01 | CN1CCN(c2cc(C3CC3)cn3cc(CNc4cncc(NC(=O)[C@H]5C[C@@H]5c5cccc(Cl)c5)n4)nc23)CC1 [Example I-255, (1S,2S)-2-(3-chlorophenyl)-N-(6-(((6-cyclopropyl-8-(4-methylpiperazin-1-yl)imidazo[1,2-a]pyridin-2-yl)methyl)amino)pyrazin-2-yl)cyclopropane-1-carboxamide] |
| 0.01 to 0.1 | O=C(Nc1cc(N2CCC[C@@H]2c2cn3cc(C4CC4)ccc3n2)ncn1)[C@H]1C[C@@H]1c1cccc(Cl)c1 [Example I-251, (1S,2S)-2-(3-chlorophenyl)-N-(6-((R)-2-(6-cyclopropylimidazo[1,2-a]pyridin-2-yl)pyrrolidin-1-yl)pyrimidin-4-yl)cyclopropane-1-carboxamide] |
| 1 to 6 | O=C(Nc1cc(N2C[C@@H](CO)C[C@@H]2c2cn3cc(C4CC4)ccc3n2)ncn1)[C@H]1C[C@@H]1c1cc(Cl)ccn1 [Example 442, (1S,2S)-2-(4-chloropyridin-2-yl)-N-(6-((2R,4S)-2-(6-cyclopropylimidazo[1,2-a]pyridin-2-yl)-4-(hydroxymethyl)pyrrolidin-1-yl)pyrimidin-4-yl)cyclopropane-1-carboxamide] |
| 0.1 to 1 | COc1cccc([C@H]2C[C@@H]2C(=O)Nc2cc(NCc3cn4cc(C5CC5)ccc4n3)ncn2)c1 (racemic) [Example 53, rac-(1S*,2S*)-N-(6-(6-cyclopropylimidazo[1,2-a]pyridin-2-yl)methyl)amino)pyrimidin-4-yl)-2-(3-methoxyphenyl)cyclopropane-1-carboxamide] |

Further lines, the compound ahead of its results:

| SMILES | EC50 [µM] |
| --- | --- |
| COc1ccc(C#N)c([C@H]2C[C@@H]2C(=O)Nc2cc(NCc3cn4cc(C5CC5)ccc4n3)ncn2)c1F (racemic) [Example 314, rac-(1S*,2S*)-2-(6-cyano-2-fluoro-3-methoxyphenyl)-N-(6-(((6-cyclopropylimidazo[1,2-a]pyridin-2-yl)methyl)amino)pyrimidin-4-yl)cyclopropane-1-carboxamide] | 0.01 to 0.1 |
| Cc1ccnc([C@H]2C[C@@H]2C(=O)Nc2cc(N[C@H](C)c3cn4cc(C(F)F)cc(N5CC(=O)N(C)C5=O)c4n3)nc(C)n2)n1 [Example 428, (1S,2S)-N-(6-(((R)-1-(6-(difluoromethyl)-8-(3-methyl-2,4-dioxoimidazolidin-1-yl)imidazo[1,2-a]pyridin-2-yl)ethyl)amino)-2-methylpyrimidin-4-yl)-2-(4-methylpyrimidin-2-yl)cyclopropane-1-carboxamide] | < 0.001 |
| O=C(Nc1nccc2c1cnn2Cc1cn2cc(C3CC3)ccc2n1)[C@H]1C[C@@H]1c1cccc(Cl)c1 [Example 584, (1S,2S)-2-(3-chlorophenyl)-N-(1-((6-cyclopropylimidazo[1,2-a]pyridin-2-yl)methyl)-1H-pyrazolo[4,3-c]pyridin-4-yl)cyclopropane-1-carboxamide] | 1 to 6 |
| O=C(Nc1cc(NCc2cn3cc(C4CC4)ccc3n2)ncn1)[C@H]1C[C@@H]1c1cc(Cl)ccn1 (single isomer, unassigned) [Example I-266, rac-(1S*,2S*)-2-(4-chloropyridin-2-yl)-N-(6-(((6-cyclopropylimidazo[1,2-a]pyridin-2-yl)methyl)amino)pyrimidin-4-yl)cyclopropane-1-carboxamide] | 0.1 to 1 |
| O=C(Nc1cc(NCc2cn3cc(C4CC4)ccc3n2)ncn1)[C@H]1C[C@@H]1c1cccc(Br)c1 (racemic) [Example 54, rac-(1S*,2S*)-2-(3-bromophenyl)-N-(6-(((6-cyclopropylimidazo[1,2-a]pyridin-2-yl)methyl)amino)pyrimidin-4-yl)cyclopropane-1-carboxamide] | 0.01 to 0.1 |
| O=C(Nc1cc(NCc2cn3cc(C4CC4)ccc3n2)ncn1)[C@H]1C[C@@H]1c1nccc(Cl)n1 (racemic) [Example I-177, rac-(1S*,2S*)-2-(4-chloropyrimidin-2-yl)-N-(6-(((6-cyclopropylimidazo[1,2-a]pyridin-2-yl)methyl)amino)pyrimidin-4-yl)cyclopropane-1-carboxamide] | < 0.001 |
| Cc1ccnc([C@H]2C[C@@H]2C(=O)Nc2cc(OCc3cn4cc(C5CC5)cc(N5CC(=O)N(C)C5=O)c4n3)nc(C(C)O)n2)n1 (stereo partly drawn) [Example 662, (1S,2S)—N-(6-((6-cyclopropyl-8-(3-methyl-2,4-dioxoimidazolidin-1-yl)imidazo[1,2-a]pyridin-2-yl)methoxy)-2-(1-hydroxyethyl)pyrimidin-4-yl)-2-(4-methylpyrimidin-2-yl)cyclopropane-1-carboxamide] | < 0.001 |
| Cc1ccnc([C@H]2C[C@@H]2C(=O)Nc2cc(N[C@@H](C)c3cn4cc(C(F)F)cc(N5CC(=O)N(C)C5=O)c4n3)ncn2)n1 [Example 416, (1S,2S)-N-(6-(((S)-1-(6-(difluoromethyl)-8-(3-methyl-2,4-dioxoimidazolidin-1-yl)imidazo[1,2-a]pyridin-2-yl)ethyl)amino)pyrimidin-4-yl)-2-(4-methylpyrimidin-2-yl)cyclopropane-1-carboxamide] | 0.01 to 0.1 |
| O=C(Nc1cc(NCc2cn3cc(C4CC4)ccc3n2)nc(N2CCCC2)n1)[C@@H]1C[C@H]1c1cccc(Cl)c1 (racemic) [Example 105, rac-(1S*,2S*)-2-(3-chlorophenyl)-N-(6-(((6-cyclopropylimidazo[1,2-a]pyridin-2-yl)methyl)amino)-2-(pyrrolidin-1-yl)pyrimidin-4-yl)cyclopropane-1-carboxamide] | 0.1 to 1 |
| O=C(Nc1cc(NCc2cn3cc(C4CC4)ccc3n2)ccn1)[C@@H]1C[C@]12CCc1ccc(Cl)cc12 (single isomer, unassigned) [Example I-273, rac-(1S*,2S*)-6′-chloro-N-(4-(((6-cyclopropylimidazo[1,2-a]pyridin-2-yl)methyl)amino)pyridin-2-yl)-2′,3′-dihydrospiro[cyclopropane-1,1′-indene]-2-carboxamide] | < 0.001 |
| O=C(Nc1cc(N2C[C@H](O)C[C@@H]2c2cn3cc(C4CC4)ccc3n2)ncn1)[C@H]1C[C@@H]1c1cccc(Cl)c1 [Example I-250, (1S,2S)-2-(3-chlorophenyl)-N-(6-((2R,4R)-2-(6-cyclopropylimidazo[1,2-a]pyridin-2-yl)-4-hydroxypyrrolidin-1-yl)pyrimidin-4-yl)cyclopropane-1-carboxamide] | > 6 |
| Cc1ccnc([C@H]2C[C@@H]2C(=O)Nc2ncnc3nn(Cc4cn5cc(C6CC6)cc(N6CC(=O)N(C)C6=O)c5n4)cc23)n1 (single isomer, unassigned) [Example I-633, rac-(1S*,2S*)—N-(2-((6-cyclopropyl-8-(3-methyl-2,4-dioxoimidazolidin-1-yl)imidazo[1,2-a]pyridin-2-yl)methyl)-2H-pyrazolo[3,4-d]pyrimidin-4-yl)-2-(4-methylpyrimidin-2-yl)cyclopropane-1-carboxamide] | 0.1 to 1 |
| CCOC(=O)CCOc1ccc(Cl)cc1[C@H]1C[C@@H]1C(=O)Nc1cc(NCc2cn3cc(C4CC4)ccc3n2)ncn1 (racemic) [Example 312, rac-ethyl 3-(4-chloro-2-((1S*,2S*)-2-((6-(((6-cyclopropylimidazo[1,2-a]pyridin-2-yl)methyl)amino)pyrimidin-4-yl)carbamoyl)cyclopropyl)phenoxy)propanoate] | 0.01 to 0.1 |
